Structures are written as SMILES.

The target in the first assay is T1, human topoisomerase II α (Homo sapiens, UniProt P11388).
T1 construct: purchased Professor Neil Osheroff (Vanderbilt University, Nashville, Tenn., USA)
T1 sequence (P11388 whole entry): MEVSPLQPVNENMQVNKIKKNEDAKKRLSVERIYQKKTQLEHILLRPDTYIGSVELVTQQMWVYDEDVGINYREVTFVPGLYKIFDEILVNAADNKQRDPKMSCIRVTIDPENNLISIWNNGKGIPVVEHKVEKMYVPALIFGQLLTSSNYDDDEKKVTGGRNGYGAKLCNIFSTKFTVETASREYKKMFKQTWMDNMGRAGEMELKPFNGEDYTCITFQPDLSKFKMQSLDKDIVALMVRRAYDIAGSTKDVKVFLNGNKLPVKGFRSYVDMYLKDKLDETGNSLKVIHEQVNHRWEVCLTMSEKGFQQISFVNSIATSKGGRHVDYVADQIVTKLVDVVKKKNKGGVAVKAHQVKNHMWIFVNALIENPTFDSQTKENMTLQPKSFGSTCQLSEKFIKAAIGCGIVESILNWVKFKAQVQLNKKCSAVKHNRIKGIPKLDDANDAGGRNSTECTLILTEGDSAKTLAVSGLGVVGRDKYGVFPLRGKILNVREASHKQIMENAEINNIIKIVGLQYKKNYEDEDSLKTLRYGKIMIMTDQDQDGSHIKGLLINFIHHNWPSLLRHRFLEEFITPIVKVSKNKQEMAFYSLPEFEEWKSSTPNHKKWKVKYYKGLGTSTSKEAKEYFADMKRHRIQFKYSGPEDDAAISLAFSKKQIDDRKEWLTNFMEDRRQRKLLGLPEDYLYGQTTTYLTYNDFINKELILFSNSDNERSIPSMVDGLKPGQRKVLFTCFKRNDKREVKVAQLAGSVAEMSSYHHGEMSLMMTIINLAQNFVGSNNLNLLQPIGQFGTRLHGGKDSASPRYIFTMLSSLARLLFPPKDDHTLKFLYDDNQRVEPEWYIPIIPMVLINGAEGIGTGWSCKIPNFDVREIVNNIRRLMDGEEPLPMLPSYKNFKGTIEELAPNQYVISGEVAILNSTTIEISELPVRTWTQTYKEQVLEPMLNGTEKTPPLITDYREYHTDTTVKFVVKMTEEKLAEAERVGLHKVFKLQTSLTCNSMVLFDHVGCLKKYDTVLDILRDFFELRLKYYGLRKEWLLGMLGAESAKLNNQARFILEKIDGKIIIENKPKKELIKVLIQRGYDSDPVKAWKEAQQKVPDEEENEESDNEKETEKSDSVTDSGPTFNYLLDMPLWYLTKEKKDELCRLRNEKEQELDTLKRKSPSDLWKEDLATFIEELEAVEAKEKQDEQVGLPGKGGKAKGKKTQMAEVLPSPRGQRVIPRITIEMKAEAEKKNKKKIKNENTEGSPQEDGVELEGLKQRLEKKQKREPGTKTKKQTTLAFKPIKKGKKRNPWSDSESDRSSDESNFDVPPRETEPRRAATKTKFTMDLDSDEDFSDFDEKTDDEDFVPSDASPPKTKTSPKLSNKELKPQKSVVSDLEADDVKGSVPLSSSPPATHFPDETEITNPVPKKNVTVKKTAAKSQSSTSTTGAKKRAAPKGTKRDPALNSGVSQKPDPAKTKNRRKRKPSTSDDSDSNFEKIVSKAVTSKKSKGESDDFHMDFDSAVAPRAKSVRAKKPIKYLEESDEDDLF
The assay can be described thus: Topoisomerase II ATPase assay (Malachite Green).
Conditions: not given
The class given is biochemical. As for the experimental part: The inhibition of topoisomerase II is measured as follows:
Purified human topoisomerase II α was purchased from Professor Neil Osheroff (Vanderbilt University—Nashville, Tenn., USA).
The pUC18 (Stratagene) plasmid was introduced into Escherichia coil XL-1 (Stratagene) and purified with the HiSpeed Plasmid Purification kit (Qiagen) according to the manufacturer instructions. The purity of the DNA preparations was evaluated spectrophotometrically (OD260/OD280 ratio) and by agarose gel.
Preparation of the Malachite Green Reagent:
Three volumes of 0.045% malachite green (Sigma, catalog no. M-9636) diluted in water are mixed for 20 min at room temperature with one volume of 4.2% ammonium molybdate (Axon Lab AG, catalog no. A-2246) diluted in 4 N HCl. After mixing, Triton X-100 (Merck, catalog no. 1.12298) is added to a final concentration of 0.01%. The solution is filtered at 0.2 μm and stored at room temperature in the dark.
ATP hydrolysis was monitored by measuring the production of inorganic phosphate released during the catalytic cycle of topoisomerase II α with acidic molybdate and malachite green (Lanzetta,et al., An improved assay for nanomole amounts of inorganic phosphate, Anal Biochem 1979;100:95-7). Briefly, human topoisomerase II α is pre-incubated at 37° C. for 10 min in 90 μl reaction buffer (10 mM Tris.HCl pH 7.9, 175 mM KCl, 1 mM EDTA, 2 mM DTT, 5 mM MgCl2, 2.5% glycerol) in the presence of the indicated amount of pUC18 and DMSO in F96 maxisorp Nunclmmuno plates (Nunc). The reaction is initiated by the addition of 10 μl ATP at the indicated concentrations and is carried out for 30 min at 37° C. under constant agitation. The reaction is stopped by the addition of 200 μl molybdate/malachite green solution and the absorbance is immediately measured at 630 nm. The OD630 value is measured in the absence of protein for each ATP concentration (background) is subtracted from the value obtained in the presence of enzyme. A standard curve with inorganic phosphate is used to determine the amount of inorganic phosphate produced during the reaction and to ensure that the measures are in the linear range of the assay. The kinetic parameters of the enzymes are determined from measurements (at least in duplicate) of the initial rates at different ATP concentrations. The data are analyzed with GraFit (Erithacus Software).
The compounds are tested at 10 μM of concentration to determine their inhibition potential given % of inhibition of the TOPO II ATPase activity.
For the determination of the IC50, the procedure is repeated for different concentrations of test compound selected to cover the range of 0% to 100% inhibition and the concentration at which 50% inhibition of topoisomerase II occurs (IC50) for each compound is determined from concentration-inhibition curves in a conventional manner.
Usually IC50 stands for the concentration that inhibits the measured activity by half. Consider `CC(C)(C)Nc1nc(Nc2ccc3ccccc3c2)nc2[nH]cnc12` [Example 15, N*6*-tert-Butyl-N*2*-naphthalen-2-yl-9H-purine-2,6-diamine], for which the IC50 was found to be 3.3 µM. `CCc1nc2c(NC(C)(C)C)nc(Nc3ccc4oc(=O)ccc4c3)nc2[nH]1` [Example 35, 6-(6-tert-Butylamino-8-ethyl-9H-purin-2-ylamino)-chromen-2-one] yielded an IC50 of 2.8 µM. Compound `CCc1nc2c(NC(C)(C)C)nc(Nc3ccc4nc(SC)sc4c3)nc2[nH]1` [Example 36, N*6*-tert-Butyl-8-ethyl-N*2*-(2-methylsulfanyl-benzothiazol-6-yl)-9H-purine-2,6-diamine] returned an IC50 of 0.9 µM.

Staying with this assay, now noted: Percent inhibition @10 μM, Malachite Green assay; read-out: TOPO II inh. (inhibition of the TOPO ATPase activity).
What is called inhibition is the share of the control response that was lost under treatment. `CCC(C)(C)Nc1nc(Nc2ccc3ncccc3c2)nc2[nH]cnc12` [Example 52, N*6*-(1,1-Dimethyl-propyl)-N*2*-quinolin-6-yl-9H-purine-2,6-diamine]: the inhibition at 10 µM is < 50%. On to `C=CCc1nc2c(NC(C)(C)C)nc(Nc3ccc4ccccc4c3)nc2[nH]1` [Example 71, 8-Allyl-N*6*-tert-butyl-N*2*-naphthalen-2-yl-9H-purine-2,6-diamine], for which the inhibition at 10 µM was < 50%.

For the compound `Cc1ccc2cc(Nc3nc(NC(C)(C)C)c4nc[nH]c4n3)ccc2n1` [Example 16, N*6*-tert-Butyl-N*2*-(2-methyl-quinolin-6-yl)-9H-purine-2,6-diamine], the inhibition at 10 µM is 50 to 65%. With `CC(C)(C)Nc1nc(Nc2ccc3ccccc3c2)nc2[nH]cnc12` [Example 15, N*6*-tert-Butyl-N*2*-naphthalen-2-yl-9H-purine-2,6-diamine], the inhibition at 10 µM lay in the range of 65 to 80%.

For the compound `CCC(C)(C)Nc1nc(Nc2ccc3nsnc3c2)nc2[nH]cnc12` [Example 53, N*2*-Benzo[1,2,5]thiadiazol-5-yl-N*6*-(1,1-dimethyl-propyl)-9H-purine-2,6-diamine], the inhibition at 10 µM is < 50%.

Turning to `CCc1nc2c(NC(C)(C)C)nc(Nc3ccc4nc(OCCN5CCOCC5)sc4c3)nc2[nH]1` [Example 37, N*6*-tert-Butyl-8-ethyl-N*2*-[2-(2-morpholin-4-yl-ethoxy)-benzothiazol-6-yl]-9H-purine-2,6-diamine], the inhibition at 10 µM is ≥ 80%. On to `C=Cc1nc2c(NC(C)(C)C)nc(Nc3ccc4ccccc4c3)nc2[nH]1` [Example 70, N*6*-tert-Butyl-N*2*-naphthalen-2-yl-8-vinyl-9H-purine-2,6-diamine], for which the inhibition at 10 µM is < 50%.

Consider `CCc1nc2c(NC(C)(C)C)nc(Nc3ccc4oc(=O)ccc4c3)nc2[nH]1` [Example 35, 6-(6-tert-Butylamino-8-ethyl-9H-purin-2-ylamino)-chromen-2-one], for which the inhibition at 10 µM was 65 to 80%. As to `CC(C)(Cc1ccc(F)cc1)Nc1nc(Nc2ccc3ncccc3c2)nc2[nH]cnc12` [Example 56, N*6*-[2-(4-Fluoro-phenyl)-1,1-dimethyl-ethyl]-N*2*-quinolin-6-yl-9H-purine-2,6-diamine], the inhibition at 10 µM is < 50%. `CC(C)(C)Nc1nc(Nc2ccc3ncsc3c2)nc2[nH]c(N)nc12` [Example 42, N*2*-Benzothiazol-6-yl-N*6*-tert-butyl-9H-purine-2,6,8-triamine]: the inhibition at 10 µM was 65 to 80%.

For the compound `CC(C)(C)Nc1nc(Nc2ccc3ccccc3c2)nc2[nH]c(Br)nc12` [Example 69, 8-Bromo-N*6*-tert-butyl-N*2*-naphthalen-2-yl-9H-purine-2,6-diamine], the inhibition at 10 µM lay in the range of 50 to 65%. Turning to `C=C(C=Cc1nc(OCCN2CCOCC2)sc1C)Nc1nc(NC(C)(C)C)c2nc(C3CCCC3)[nH]c2n1` [Example 40, N*6*-tert-Butyl-8-cyclopentyl-N*2*-{1-methylene-3-[5-methyl-2-(2-morpholin-4-yl-ethoxy)-thiazol-4-yl]-allyl}-9H-purine-2,6-diamine], the inhibition at 10 µM came out at 0%. `Cc1nc2c(NC(C)(C)C)nc(Nc3ccc4ccccc4c3)nc2[nH]1` [Example 72, N*6*-tert-Butyl-8-methyl-N*2*-naphthalen-2-yl-9H-purine-2,6-diamine]: the inhibition at 10 µM was < 50%.

As to `CCc1nc2c(NC(C)CC(N)=O)nc(Nc3ccc4ncsc4c3)nc2[nH]1` (stereo not drawn) [Example 30, 3-[2-(Benzothiazol-6-ylamino)-8-ethyl-9H-purin-6-ylamino]-butyramide], the inhibition at 10 µM worked out at 0%. `COc1cccc(Nc2nc(Nc3ccc4ncsc4c3)nc3[nH]cnc23)c1` [Example 8, N*2*-Benzothiazol-6-yl-N*6*-(3-methoxy-phenyl)-9H-purine-2,6-diamine]: the inhibition at 10 µM was < 50%.

As for `CCc1nc2c(NC(C)(C)C)nc(Nc3ccc4ccccc4c3)nc2[nH]1` [Example 73, N*6*-tert-Butyl-8-ethyl-N*2*-naphthalen-2-yl-9H-purine-2,6-diamine], the inhibition at 10 µM is < 50%. Still for that read-out and setting: for `CC(C)(C)Nc1nc(Nc2ccc3nsnc3c2)nc2[nH]cnc12` [Example 47, N*2*-Benzo[1,2,5]thiadiazol-5-yl-N*6*-tert-butyl-9H-purine-2,6-diamine] the value was < 50%. Regarding `CC(C)(C)Nc1nc(Nc2ccc3[nH]ccc3c2)nc2[nH]cnc12` [Example 24, N*6*-tert-Butyl-N*2*-(1H-indol-5-yl)-9H-purine-2,6-diamine], the inhibition at 10 µM is < 50%. Take `CC(C)(C)Nc1nc(Nc2ccc(-c3nc4ccccc4s3)cc2)nc2[nH]cnc12` [Example 20, N*2*-(4-Benzothiazol-2-yl-phenyl)-N*6*-tert-butyl-9H-purine-2,6-diamine]: the inhibition at 10 µM lay in the range of 65 to 80%. Same read-out and setting: for `CC(C)(C)Nc1nc(Nc2ccc3ncsc3c2)nc2[nH]c(C3CCCC3)nc12` [Example 34, N*2*-Benzothiazol-6-yl-N*6*-tert-butyl-8-cyclopentyl-9H-purine-2,6-diamine] the value was < 50%; for `Cc1nc2cc(Nc3nc(NC(C)(C)C)c4nc[nH]c4n3)ccc2s1` [Example 17, N*6*-tert-Butyl-N*2*-(2-methyl-benzothiazol-5-yl)-9H-purine-2,6-diamine], < 50%; for `Cc1cc2cc(Nc3nc(NC(C)(C)C)c4nc[nH]c4n3)ccc2[nH]1` [Example 23, N*6*-tert-Butyl-N*2*-(2-methyl-1H-indol-5-yl)-9H-purine-2,6-diamine], < 50%.

Regarding `CC(C)(Cc1ccc(F)cc1)Nc1nc(Nc2ccc3ncsc3c2)nc2[nH]cnc12` [Example 55, N*2*-Benzothiazol-6-yl-N*6*-[2-(4-fluoro-phenyl)-1,1-dimethyl-ethyl]-9H-purine-2,6-diamine], the inhibition at 10 µM was < 50%.

As to `CCC(C)(C)Nc1nc(Nc2ccc3ncsc3c2)nc2[nH]cnc12` [Example 51, N*2*-Benzothiazol-6-yl-N*6*-(1,1-dimethyl-propyl)-9H-purine-2,6-diamine], the inhibition at 10 µM was 50 to 65%. Still for that read-out and setting: for `CC(C)(C)Nc1nc(Nc2ccc3ncccc3c2)nc2[nH]cnc12` [Example 46, N*6*-tert-Butyl-N*2*-quinolin-6-yl-9H-purine-2,6-diamine] the value was 50 to 65%; for `c1csc(-c2ccc(Nc3nc(NC4CCCCCC4)c4nc[nH]c4n3)cc2)n1` [Example 2, N*6*-Cycloheptyl-N*2*-(4-thiazol-2-yl-phenyl)-9H-purine-2,6-diamine], < 50%. On the same count and under the same terms, for `CCc1nc2c(NC(C)(C)C)nc(Nc3ccc4nc(SC)sc4c3)nc2[nH]1` [Example 36, N*6*-tert-Butyl-8-ethyl-N*2*-(2-methylsulfanyl-benzothiazol-6-yl)-9H-purine-2,6-diamine] the value was ≥ 80%; for `c1cnc2ccc(Nc3nc(Nc4ccc5ncccc5c4)c4nc[nH]c4n3)cc2c1` [Example 10, N*2*,N*6*-Di-quinolin-6-yl-9H-purine-2,6-diamine], < 50%; for `c1nc2c(NC3CCCCCC3)nc(Nc3ccc4ncsc4c3)nc2[nH]1` [Example 66, N*2*-Benzothiazol-6-yl-N*6*-cycloheptyl-9H-purine-2,6-diamine], < 50%. As to `c1ccc(C(Nc2nc(Nc3ccc4ncccc4c3)nc3[nH]cnc23)c2ccccc2)cc1` [Example 13, N*6*-Benzhydryl-N*2*-quinolin-6-yl-9H-purine-2,6-diamine], the inhibition at 10 µM is < 50%. Consider `CC(C)(C)Nc1nc(Nc2ccc3nc(C(C)(C)C)sc3c2)nc2[nH]cnc12` [Example 18, N*6*-tert-Butyl-N*2*-(2-tert-butyl-benzothiazol-6-yl)-9H-purine-2,6-diamine], for which the inhibition at 10 µM lay in the range of 65 to 80%.

As for `c1ccc(Nc2nc(Nc3ccc4ncccc4c3)nc3[nH]cnc23)cc1` [Example 12, N*6*-Phenyl-N*2*-quinolin-6-yl-9H-purine-2,6-diamine], the inhibition at 10 µM was in the range of 50 to 65%. `c1ccc(C(Nc2nc(Nc3ccc4ncsc4c3)nc3[nH]cnc23)c2ccccc2)cc1` [Example 11, N*6*-Benzhydryl-N*2*-benzothiazol-6-yl-9H-purine-2,6-diamine]: the inhibition at 10 µM is < 50%.
